Bounds are passed on as bounds.

The first assay addresses T1, LOX (Mus musculus, UniProt P28301).
T1 construct: Full length LOX cDNA was then PCR cloned into pEGFP-N1 (Clonetech), or biosensor vector proGFP2-N1; expressed in transfected cells; host or cells: MDCK cells grown as cysts on Matrigel, G418-selected
T1 sequence (P28301 163-411): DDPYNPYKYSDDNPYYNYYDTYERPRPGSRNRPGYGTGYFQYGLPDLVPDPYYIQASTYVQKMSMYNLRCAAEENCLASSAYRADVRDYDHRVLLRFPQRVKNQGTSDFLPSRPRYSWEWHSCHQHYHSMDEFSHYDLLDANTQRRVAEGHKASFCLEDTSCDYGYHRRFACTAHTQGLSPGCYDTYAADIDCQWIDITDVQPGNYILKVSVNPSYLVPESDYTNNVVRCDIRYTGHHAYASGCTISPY
The assay can be described thus: LOX activity in cysts assay (LOX-roGFP2 biosensor, MDCK cysts). It is filed as cell-based. The following applies: 2.5 uM (stated in cell); MDCK cysts; DMSO = 0%, BAPN 1 mM = 100% inhibition; read-out: LOX biosensor inhibition (cyst) @ 2.5 uM. The procedure:
LOX Activity in Cysts Assay (Tang et al, 2017).
All cell lines used in this study were purchased from American Type Culture Collection (ATCC). Mycoplasma contamination was routinely monitored by PCR. Cells used were not found to be Mycoplasma positive. MDCK cell lines were cultured in Dulbecco's Modified Eagle Medium (DMEM) supplemented with 10% fetal bovine serum (FBS) and 1% Penicillin Streptomycin solution (Pen Strep). For GFP constructs transfection in MDCK cells, lipofectamine 3000 was used according to manufactures protocols. Cells were either selected with G418 (Life Technologies) at 5 mg/ml. All cell culture reagents were purchased from Life Technologies.
To produce MDCK cysts, cells were cultured on Matrigel (Corning) with 2% Matrigel supplemented in DMEM with 10% FBS. Cysts were allowed to form for 10 days before subsequent studies.
Mouse LOX cDNA was purchased from OriGene. Full length LOX cDNA was then PCR cloned into pEGFP-N1 (Clonetech), or biosensor vector proGFP2-N1 (Hanson, 2004) using the following primers, […] (forward primer) and […] (reverse primer). For the insertion into pEGFP-N1 or proGFP2-N1, NheI and XhoI restriction sites were added to forward and reverse primers accordingly. Mutant LOX constructs were made using QuickChange II site-directed mutagenesis kit (Agilent Technologies) following manufacture's protocol using LOX-GFP as template. To generate, roGFP2 versions of LOX mutant constructs, LOX mutant cDNA was transferred from pEGFP-N1 to proGFP2-N1 using NheI and XhoI.
All photomicrographs were taken with a Leica TCS SP8 X confocal system. For LOX biosensor imaging, live MDCK cysts were used. The oxidised biosensor was excited using a 405 nm laser, while the reduced biosensor was excited with a 488 nm laser. Emission of the biosensor was recorded at 500 nm˜530 nm range using sequential scans. Ratio images were generated following a published protocol {Kardash, 2011 #376}. Note, while the published protocol generates YFP/CFP ratio images, we used it to generate Oxidised/Reduced (roGFP2 ratio) ratio images. The roGFP2 ratio at the basal surface of MDCK cysts was used to indicate LOX inhibition. LOX inhibitors were added 30 min prior to imaging.
For clarity, readout for DMSO treated cysts represents 0% inhibition (no inhibition) and readout for BAPN at 1 mM is used as 100% inhibition (full inhibition).
A word on the inhibition: it is the drop in the measured response relative to a control, in per cent. `CCNC(=O)N1C[C@@H]2CN(c3ccc(F)cc3)[C@H](C1)C(C)(C)C2` [Example 2, (1 S,5S)—N-ethyl-6-(4-fluorophenyl)-9,9-dimethyl-3,6-diazabicyclo[3.2.2]nonane-3-carboxamide]: the inhibition at 2.5 µM came out at 92%.

Turning to `CCOc1ccc(N2C[C@H]3CN(C(=O)N4CCC(C#N)CC4)C[C@@H]2C(C)(C)C3)cc1` [Example 17, 1-((1S,5S)-6-(4-ethoxyphenyl)-9,9-dimethyl-3,6-diazabicyclo[3.2.2]nonane-3-carbonyl)piperidine-4-carbonitrile], the inhibition at 2.5 µM was determined as 77%.

The assay is the same for the next values; noted with them: 10 uM; MDCK cysts; inhibitor added 30 min prior to imaging; DMSO = 0%, BAPN 1 mM = 100% inhibition; read-out: LOX biosensor inhibition (cyst) @ 10 uM.
Take `CCOc1ccc(N2C[C@H]3CN(C(=O)NNCCO)C[C@@H]2C(C)(C)C3)cc1` (stereo in doubt) [Example 29, 6-(4-ethoxyphenyl)-N′-(2-hydroxyethyl)-9,9-dimethyl-3,6-diazabicyclo[3.2.2]nonane-3-carbohydrazide]: the inhibition at 10 µM turned out to be 100%.

As to `CCOc1ccc(N2C[C@H]3CN(C(=O)Nc4ccc(OC)cc4)C[C@@H]2C(C)(C)C3)cc1` [Example 1, (1S,5S)-6-(4-ethoxyphenyl)-N-(4-methoxyphenyl)-9,9-dimethyl-3,6-diazabicyclo[3.2.2]nonane-3-carboxamide], the inhibition at 10 µM amounted to 91%. In the case of `CCNC(=O)N1C[C@@H]2CN(c3ccc(OCCOC)cc3)[C@H](C1)C(C)(C)C2` [Example 3, (1S,5S)—N-ethyl-6-(4-(2-methoxyethoxy)phenyl)-9,9-dimethyl-3,6-diazabicyclo[3.2.2]nonane-3-carboxamide], the inhibition at 10 µM came to 88%.

Consider `CC1(C)C[C@@H]2CN(C(=O)NCCO)C[C@H]1N(c1ccc(N3CCS(=O)(=O)CC3)cc1)C2` [Example 5, (1S,5S)-6-(4-(1,1-dioxidothiomorpholino)phenyl)-N-(2-hydroxyethyl)-9,9-dimethyl-3,6-diazabicyclo[3.2.2]nonane-3-carboxamide], for which the inhibition at 10 µM worked out at 62%. In the case of `CNC(=O)N1C[C@@H]2CN(c3ccc(N4CCS(=O)(=O)CC4)cc3)[C@H](C1)C(C)(C)C2` [Example 6, (1S,5S)-6-(4-(1,1-dioxidothiomorpholino)phenyl)-N,9,9-trimethyl-3,6-diazabicyclo[3.2.2]nonane-3-carboxamide], the inhibition at 10 µM is 50%. For `CC1(C)C[C@@H]2CN(c3ccc(N4CCS(=O)(=O)CC4)cc3)[C@H]1CCN2C(=O)N1CCS(=O)(=O)CC1` [Example 9, (1,1-dioxidothiomorpholino)((1R,5S)-6-(4-(1,1-dioxidothiomorpholino)phenyl)-9,9-dimethyl-2,6-diazabicyclo[3.2.2]nonan-2-yl)methanone], the inhibition at 10 µM was found to be 100%. With `CC1(C)C[C@@H]2CN(C(=O)NC3CCS(=O)(=O)CC3)C[C@H]1N(c1ccc(N3CCS(=O)(=O)CC3)cc1)C2` [Example 11, (1S,5S)-N-(1,1-dioxidotetrahydro-2H-thiopyran-4-yl)-6-(4-(1,1-dioxidothiomorpholino)phenyl)-9,9-dimethyl-3,6-diazabicyclo[3.2.2]nonane-3-carboxamide], the inhibition at 10 µM is 100%. Consider `CCOc1ccc(N2C[C@H]3CN(C(=O)N(CCO)CCO)C[C@@H]2C(C)(C)C3)cc1` [Example 14, (1S,5S)-6-(4-ethoxyphenyl)-N,N-bis(2-hydroxyethyl)-9,9-dimethyl-3,6-diazabicyclo[3.2.2]nonane-3-carboxamide], for which the inhibition at 10 µM stood at 75%.

For the compound `CCOc1ccc(N2C[C@H]3CN(C(=O)N4CC[C@H](O)C4)C[C@@H]2C(C)(C)C3)cc1` [Example 15, ((1S,5S)-6-(4-ethoxyphenyl)-9,9-dimethyl-3,6-diazabicyclo[3.2.2]nonan-3-yl)((S)-3-hydroxypyrrolidin-1-yl)methanone], the inhibition at 10 µM stood at 84%.

For the compound `CCOc1ccc(N2C[C@H]3CN(C(=O)N(C)CCC#N)C[C@@H]2C(C)(C)C3)cc1` [Example 16, (1S,5S)-N-(2-cyanoethyl)-6-(4-ethoxyphenyl)-N,9,9-trimethyl-3,6-diazabicyclo[3.2.2]nonane-3-carboxamide], the inhibition at 10 µM came to 88%. Turning to `CCOc1ccc(N2C[C@H]3CN(C(=O)N4CCC(N5CCCC5)CC4)C[C@@H]2C(C)(C)C3)cc1` [Example 18, ((1S,5S)-6-(4-ethoxyphenyl)-9,9-dimethyl-3,6-diazabicyclo[3.2.2]nonan-3-yl)(4-(pyrrolidin-1-yl)piperidin-1-yl)methanone], the inhibition at 10 µM is 84%.

`CCOc1ccc(N2C[C@H]3CN(C(=O)NC[C@@H](O)CO)C[C@@H]2C(C)(C)C3)cc1` [Example 19, (1S,5S)-N-((R)-2,3-dihydroxypropyl)-6-(4-ethoxyphenyl)-9,9-dimethyl-3,6-diazabicyclo[3.2.2]nonane-3-carboxamide]: the inhibition at 10 µM came out at 100%. For the compound `CCOc1ccc(N2C[C@@H]3CC(C)(C)[C@H]2CCN3C(=O)NCCO)cc1` [Example 20, (1S,5R)-6-(4-ethoxyphenyl)-N-(2-hydroxyethyl)-9,9-dimethyl-2,6-diazabicyclo[3.2.2]nonane-2-carboxamide], the inhibition at 10 µM came to 79%.

In the case of `CCOc1ccc(N2C[C@@H]3CN(C(=O)NCCO)C[C@H]2C(C)(C)C3)cc1` [Example 21, (1R,5R)-6-(4-ethoxyphenyl)-N-(2-hydroxyethyl)-9,9-dimethyl-3,6-diazabicyclo[3.2.2]nonane-3-carboxamide], the inhibition at 10 µM is 94%.

With `CCOc1ccc(N2C[C@H]3CC(C)(C)[C@@H]2CCN3C(=O)NCCO)cc1` [Example 22, (1R,5S)-6-(4-ethoxyphenyl)-N-(2-hydroxyethyl)-9,9-dimethyl-2,6-diazabicyclo[3.2.2]nonane-2-carboxamide], the inhibition at 10 µM is 100%. For the compound `CCOc1ccc(N2C[C@@H]3CC4(CCCCC4)[C@H]2CCN3C(=O)NCCO)cc1` [Example 23, (1S,5R)-6-(4-ethoxyphenyl)-N-(2-hydroxyethyl)-2,6-diazaspiro[bicyclo[3.2.2]nonane-9,1′-cyclohexane]-2-carboxamide], the inhibition at 10 µM is 100%. As to `CCOc1cccc(N2C[C@H]3CN(C(=O)NCCO)C[C@@H]2C(C)(C)C3)c1` [Example 24, (1S,5S)-6-(3-ethoxyphenyl)-N-(2-hydroxyethyl)-9,9-dimethyl-3,6-diazabicyclo[3.2.2]nonane-3-carboxamide], the inhibition at 10 µM amounted to 100%. Regarding `CCOc1ccc(N2C[C@H]3CN(C(=O)Nc4cc(C)n[nH]4)C[C@@H]2C(C)(C)C3)cc1` [Example 25, (1S,5S)-6-(4-ethoxyphenyl)-9,9-dimethyl-N-(3-methyl-1H-pyrazol-5-yl)-3,6-diazabicyclo[3.2.2]nonane-3-carboxamide], the inhibition at 10 µM was determined as 73%. Regarding `CC1(C)C[C@@H]2CN(C(=O)NCCO)C[C@H]1N(c1ccc(Oc3ccccn3)cc1)C2` [Example 28, (1S,5S)-N-(2-hydroxyethyl)-9,9-dimethyl-6-(4-(pyridin-2-yloxy)phenyl)-3,6-diazabicyclo[3.2.2]nonane-3-carboxamide], the inhibition at 10 µM came out at 100%. As for `CC1(C)C[C@@H]2CN(C(=O)NCCO)C[C@H]1N(c1ccc(N3CCC(F)(F)CC3)cc1)C2` [Example 30, (1S,5S)-6-(4-(4,4-difluoropiperidin-1-yl)phenyl)-N-(2-hydroxyethyl)-9,9-dimethyl-3,6-diazabicyclo[3.2.2]nonane-3-carboxamide], the inhibition at 10 µM was 100%.

Still in this assay, the particulars now being: 1 mM; readout used as 100% inhibition.
For `N#CCCN` [BAPN, β-aminopropionitrile, reference compound], the “LOX inhibition in cysts assay (reference used as full inhibition)” value turned out to be 100%.

Still in this assay, the particulars now being: MDCK cysts, roGFP2 ratio at basal surface; read-out: LOX biosensor IC50 (cyst).
One may read the IC50 as the midpoint of a concentration-inhibition curve. With `CC1(C)C[C@@H]2CN(c3ccc(N4CCS(=O)(=O)CC4)cc3)[C@H]1CCN2C(=O)N1CCS(=O)(=O)CC1` [Example 9, (1,1-dioxidothiomorpholino)((1R,5S)-6-(4-(1,1-dioxidothiomorpholino)phenyl)-9,9-dimethyl-2,6-diazabicyclo[3.2.2]nonan-2-yl)methanone], the IC50 came to 690 nM. Consider `CCOc1ccc(N2C[C@@H]3CC4(CCCCC4)[C@H]2CCN3C(=O)NCCO)cc1` [Example 23, (1S,5R)-6-(4-ethoxyphenyl)-N-(2-hydroxyethyl)-2,6-diazaspiro[bicyclo[3.2.2]nonane-9,1′-cyclohexane]-2-carboxamide], for which the IC50 was 370 nM. As for `CCOc1cccc(N2C[C@H]3CN(C(=O)NCCO)C[C@@H]2C(C)(C)C3)c1` [Example 24, (1S,5S)-6-(3-ethoxyphenyl)-N-(2-hydroxyethyl)-9,9-dimethyl-3,6-diazabicyclo[3.2.2]nonane-3-carboxamide], the IC50 is under 630 nM. Same read-out and setting: the same measure for `CC1(C)C[C@@H]2CN(C(=O)NCCO)C[C@H]1N(c1ccc(N3CCC(F)(F)CC3)cc1)C2` [Example 30, (1S,5S)-6-(4-(4,4-difluoropiperidin-1-yl)phenyl)-N-(2-hydroxyethyl)-9,9-dimethyl-3,6-diazabicyclo[3.2.2]nonane-3-carboxamide]: 330 nM.
